According to patent US20160311791A1, “NOVEL TRICYCLIC CALCIUM SENSING RECEPTOR ANTOGONISTS FOR THE TREATMENT OF OSTEOPOSOSIS” (MERCK SHARP & DOHME CORP., priority 2013, published 2016):

Key:
PTH release = experiment: In vivo pharmacodynamic effects: PTH (Rat Intact PTH 1-84 ELISA); details: oral gavage
Protocol: Procedures for In Vivo Pharmacodynamic Effects
The objective of these studies was to assess the effect of compounds on stimulating PTH release and increasing calcium secretion in the rat. Male Sprague-Dawley rats (3-4 months old) were equipped with jugular vein cannulae (JVC) by surgical procedure. The rats were given the compound by oral gavage. Blood was sampled from the JVC at 15 minutes, 30 minutes, 60 minutes, 120 minutes, 240 minutes, 420 minutes, and 24 hrs post compound administration. Plasma was separated and used for a PTH ELISA assay and a calcium concentration assay. After the last blood sampling, the rats were sacrificed under anesthesia by inhalation of CO2. All procedures were conducted in compliance with the Animal Welfare Act, the Guide for the Care and Use of Laboratory Animals and the recommendations of the AVMA Panel on Euthanasia.
Rat plasma samples were used for measuring serum PTH levels: The Rat Intact PTH 1-84 ELISA kit (Immutopics Cat#60-2500) was used according to the manufacturer's instructions. Total serum calcium determination was made using a calcium arsenazo III reagent (Fisher Scientific Cat # Pointe Scientific Calcium (Arsenazo III) Reagents; Mfr. No.: C7529-500; Qty.: 500 mL. Mfr. No.: C7529-500, Part #23666172) according to the manufacturer's instructions. For these experiments, 2 μl of sample was added to 198 μl of reagent, mixed, and read at 650 nm.

[1] = Pharmacokinetic evaluation in rats; assay type: in vivo, rat; details: for clearance / Cmax / bioavailability / half-life: rat, plasma, dose and route not given; for clearance: read-out: Clp (plasma clearance); for Cmax: read-out: Cmax (maximum observed plasma concentration); for bioavailability: read-out: F % (bioavailability); for half-life: read-out: t1/2 (plasma half-life) (converted)
human CaSR = molecular target: T1, human CaSR (Homo sapiens, UniProt P41180); experiment: CaSR binding assay (radioligand, HEK293 membranes); set-up: expressed in transfected cells; host or cells: HEK293 cell membranes; details: for Ki: membranes of HEK293 cells expressing human CaSR, radio-labeled EXAMPLE 25; for IC50: read-out: IC50s (high affinity for the human calcium sensing receptor and potent antagonist activity)
T1 sequence (P41180 20-1078): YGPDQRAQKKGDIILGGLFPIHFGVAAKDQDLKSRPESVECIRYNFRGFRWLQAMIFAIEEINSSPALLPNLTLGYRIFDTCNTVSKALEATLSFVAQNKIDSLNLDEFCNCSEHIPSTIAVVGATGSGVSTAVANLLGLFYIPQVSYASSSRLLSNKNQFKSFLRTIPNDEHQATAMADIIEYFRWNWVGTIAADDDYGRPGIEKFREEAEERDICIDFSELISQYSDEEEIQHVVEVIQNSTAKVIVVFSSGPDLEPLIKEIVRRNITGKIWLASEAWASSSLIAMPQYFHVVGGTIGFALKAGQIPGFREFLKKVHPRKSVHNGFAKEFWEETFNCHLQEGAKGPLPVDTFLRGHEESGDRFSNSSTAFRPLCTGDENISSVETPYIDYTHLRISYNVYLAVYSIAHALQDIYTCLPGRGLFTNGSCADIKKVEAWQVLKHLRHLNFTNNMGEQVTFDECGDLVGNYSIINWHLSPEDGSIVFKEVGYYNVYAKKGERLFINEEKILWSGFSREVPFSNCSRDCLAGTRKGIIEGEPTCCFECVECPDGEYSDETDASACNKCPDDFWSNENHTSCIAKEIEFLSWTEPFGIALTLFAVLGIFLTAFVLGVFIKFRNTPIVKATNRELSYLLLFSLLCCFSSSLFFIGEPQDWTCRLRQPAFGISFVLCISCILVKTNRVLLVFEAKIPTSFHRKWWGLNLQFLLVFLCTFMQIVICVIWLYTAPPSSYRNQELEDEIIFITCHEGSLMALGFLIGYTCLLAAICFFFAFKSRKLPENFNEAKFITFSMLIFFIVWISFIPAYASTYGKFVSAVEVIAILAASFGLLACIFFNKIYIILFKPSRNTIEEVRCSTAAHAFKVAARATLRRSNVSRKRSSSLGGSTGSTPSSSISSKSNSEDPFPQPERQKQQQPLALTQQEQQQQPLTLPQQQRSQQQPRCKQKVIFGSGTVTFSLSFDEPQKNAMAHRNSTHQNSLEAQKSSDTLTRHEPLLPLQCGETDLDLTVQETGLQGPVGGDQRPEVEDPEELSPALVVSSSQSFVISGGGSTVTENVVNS
Protocol: Procedures for CaSR Binding Assay
Membrane preparations from HEK293 cells expressing the human CaSR were generated. The cells were cultured and then washed twice with 1×PBS. The cells were dissociated by adding 4 ml pre-warmed 0.25% Trypsin-EDTA, and by incubating the flask at RT for 3 minutes. 10 ml media was dispensed over the cell layer surface, and the cells were harvested into a centrifuge tube. The cells were centrifuged at 200×g for 10 minutes. The cell pellet was suspended in 30 ml of membrane preparation buffer and then homogenized on ice twice at 16000 rpm for 10 seconds. Following homogenization, the membrane was collected by centrifuge at 40000×g for 30 minutes at 4° C., washed twice with 30 ml membrane preparation buffer, and centrifuged again at 40000×g for 10 minutes. The membrane pellet was suspended in 30 ml membrane preparation buffer (50 mM Tris, pH7.0, 10 mM MgCl, Proteinase inhibitor (Roche, REF 04693116001), and then homogenized on ice once at 16000 rpm for 10 seconds. The total protein concentration was measured using a BCA kit. The membrane protein concentration was adjusted to 2.4 mg/ml and then diluted with binding buffer (10 mM HEPES, pH7.4, 130 mM NaCl, 0.4 mM CaCl2, 5 mM MgCl2, 1 mM EGTA, 10 mM glucose, 0.1% BSA) to 0.33 μg/μl. The final amount in the binding assay was 20 μg/well. Test compound was serially diluted manually by using BIOHIT multi-channel pipettor in 100% DMSO (10 point, 3-fold dilution of each compound from 5.0 μM in 100% DMSO). 4 μl of serially diluted compound was manually transferred into a second assay microplate that contained 196 μl of binding assay buffer to create the intermediate dilution plate. For background, 20 μl of assay buffer was added to each control well. […] The binding reaction used a 100 μl reaction volume consisting of 10 μl of test compound, 30 μl of diluted radio-labelled compound, and 60 μl of membrane solution (0.33 μg/μl). The reaction mixture was incubated at room temperature for one hour. The Grade GF/C filter plates were presoaked in 0.3% PEI (protect from light) for 60 minutes at room temperature. The plate was then washed three times with ice-cold wash buffer (25 mM Tris-HCl, PH7.4, 130 mM NaCl, 5 mM MgCl2, 0.4 mM CaCl2, 0.1% BSA) prior to filtration of the binding samples. The binding reaction was terminated by rapid filtration of 100 μl binding mixture through the GF/C plate. Plates were then washed 6 times with ice-cold wash buffer. Filter plates were dried with a hair dryer for 20 minutes. 60 μl/well MICROSCINT 20 (a cocktail for microplates) was added to the bottom of sealed filters, then the filters were sealed at the top with tape. Bound radioactivity was counted in a TOPCOUNT scintillation counter. Exemplary compounds bind in the 1-500 nM range.

Compound | Maximum Change in PTH (fold) (PTH release; at 30 mpk) | half-lives in rats [1] | tmax [1] | clearance [1] | Cmax [1] | bioavailability [1] | half-life [1] | Ki (human CaSR) | IC50 (human CaSR) | Maximum Change in PTH (fold) (PTH release; at 10 mpk)
C[C@@H](OC[C@H](O)CNC(C)(C)Cc1ccc2ccccc2c1)c1cccc2c1O[C@@H]1[C@@H](C(=O)O)[C@H]21 [Example 1-1] | 5.8 (at fold | short half-lives | less than an hour | 11 mL/min/kg | 2400 nM | 24% | 1.7 h | 18 nM | 18 nM | –
CSc1ccc(CC(C)(C)NC[C@@H](O)CO[C@H](C)c2ccc(C)c3c2C2[C@H](O3)[C@H]2C(=O)O)cc1F (stereo partly drawn) [Example 8-24] | 4 (at fold | short half-lives | less than an hour | 40 mL/min/kg | 160 nM | 7% | 1.8 h | 29 nM | 29 nM | –
C[C@@H](OC[C@H](O)CNC(C)(C)Cc1ccc2ccccc2c1)c1cccc2c1[C@@H]1[C@H](O2)[C@H]1C(=O)O [Example 5-1] | – | short half-lives | less than an hour | 52.5 mL/min/kg | 690 nM | 7% | 1.3 h | 7 nM | 7 nM | 8 (at fold
